Laboratory results from patent US20060269950A1, “Method of identifying compounds that modulate interaction of androgen receptor with beta-catenin” (Wyeth, priority 2005, published 2006).

Tests used:
[1] = system: estrogen receptor (ER) interaction with β-catenin; assay: One-hybrid GAL4-β-catenin luciferase reporter assay in CV-1 cells with ER expression plasmid; assay type: cell-based; details: 10 nM, 18 hours
Description: (§1) CV-1 cells were cultured on 96 well plates and transfected after 24 hours with the expression and reporter plasmids using the lipofectamine procedure (Invitrogen). In this procedure, the three different plasmid constructs used were mixed in cell culture media and lipofectamine and incubated for 15 minutes according to the manufacturer's instructions (Invitrogen). The plasmid-lipofectamine mixture was diluted in culture medium, added to cells, and incubated for 4 hours. The cells were rinsed and then treated with culture media. Twenty-four hours after transfection, the cells were treated with androgen agonists and antagonists or vehicle. After 18 hours, cell lysates were harvested and assayed for luciferase activity using luciferase reagent (Promega) and a luminometer (Wallac). Other known transfection techniques can be used including, for example, calcium phosphate precipitation transfection technique.
(§2) CV-1 cells were transfected with the 5XGAL4-luciferase reporter and the GAL4-O-catenin expression plasmid in the absence of a nuclear receptor expression vector (−), with the AR, PR, or ER expression plasmid. […] Cell lysates were harvested and analyzed for luciferase activity.

[2] = molecular target: T1, progesterone receptor (PR) interaction with β-catenin (Homo sapiens, UniProt P06401); assay: One-hybrid GAL4-β-catenin luciferase reporter assay in CV-1 cells with PR expression plasmid; assay type: cell-based; details: 10 nM, 18 hours
T1 construct: expressed in transfected cells; host or cells: CV-1 cells
T1 sequence (P06401 1-933): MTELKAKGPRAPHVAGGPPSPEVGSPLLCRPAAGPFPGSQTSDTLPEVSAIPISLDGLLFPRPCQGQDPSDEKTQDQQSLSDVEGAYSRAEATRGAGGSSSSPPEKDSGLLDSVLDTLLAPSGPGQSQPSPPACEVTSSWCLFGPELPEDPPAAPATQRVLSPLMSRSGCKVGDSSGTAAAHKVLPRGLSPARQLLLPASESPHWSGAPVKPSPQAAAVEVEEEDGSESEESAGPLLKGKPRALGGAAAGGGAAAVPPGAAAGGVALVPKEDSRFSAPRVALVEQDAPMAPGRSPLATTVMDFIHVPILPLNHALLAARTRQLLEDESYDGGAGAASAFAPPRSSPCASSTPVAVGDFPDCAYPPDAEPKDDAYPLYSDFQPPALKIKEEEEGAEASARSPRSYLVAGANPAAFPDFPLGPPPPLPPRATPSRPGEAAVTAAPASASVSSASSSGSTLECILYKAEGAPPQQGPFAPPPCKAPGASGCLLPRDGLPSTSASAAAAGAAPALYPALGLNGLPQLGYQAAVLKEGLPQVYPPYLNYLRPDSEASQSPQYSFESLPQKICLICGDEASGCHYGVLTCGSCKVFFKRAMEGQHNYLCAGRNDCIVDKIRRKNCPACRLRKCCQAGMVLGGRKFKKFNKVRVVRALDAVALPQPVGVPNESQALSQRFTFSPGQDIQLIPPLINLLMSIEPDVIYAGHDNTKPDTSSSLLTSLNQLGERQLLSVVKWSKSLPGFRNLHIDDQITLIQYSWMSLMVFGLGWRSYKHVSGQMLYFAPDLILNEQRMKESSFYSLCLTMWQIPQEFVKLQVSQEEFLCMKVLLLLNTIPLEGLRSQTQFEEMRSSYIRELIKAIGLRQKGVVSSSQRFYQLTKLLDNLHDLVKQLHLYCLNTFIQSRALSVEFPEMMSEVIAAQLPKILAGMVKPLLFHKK
Description: as §1, §2

[3] = molecular target: T2, interaction between AR and β-catenin (Mus musculus, UniProt P19091); assay: Co-immunoprecipitation of β-catenin followed by Western analysis for AR in L929 cells; details: 300 nM (30-fold excess) in presence of 10 nM DHT, 17 hours
T2 sequence (P19091 1-899): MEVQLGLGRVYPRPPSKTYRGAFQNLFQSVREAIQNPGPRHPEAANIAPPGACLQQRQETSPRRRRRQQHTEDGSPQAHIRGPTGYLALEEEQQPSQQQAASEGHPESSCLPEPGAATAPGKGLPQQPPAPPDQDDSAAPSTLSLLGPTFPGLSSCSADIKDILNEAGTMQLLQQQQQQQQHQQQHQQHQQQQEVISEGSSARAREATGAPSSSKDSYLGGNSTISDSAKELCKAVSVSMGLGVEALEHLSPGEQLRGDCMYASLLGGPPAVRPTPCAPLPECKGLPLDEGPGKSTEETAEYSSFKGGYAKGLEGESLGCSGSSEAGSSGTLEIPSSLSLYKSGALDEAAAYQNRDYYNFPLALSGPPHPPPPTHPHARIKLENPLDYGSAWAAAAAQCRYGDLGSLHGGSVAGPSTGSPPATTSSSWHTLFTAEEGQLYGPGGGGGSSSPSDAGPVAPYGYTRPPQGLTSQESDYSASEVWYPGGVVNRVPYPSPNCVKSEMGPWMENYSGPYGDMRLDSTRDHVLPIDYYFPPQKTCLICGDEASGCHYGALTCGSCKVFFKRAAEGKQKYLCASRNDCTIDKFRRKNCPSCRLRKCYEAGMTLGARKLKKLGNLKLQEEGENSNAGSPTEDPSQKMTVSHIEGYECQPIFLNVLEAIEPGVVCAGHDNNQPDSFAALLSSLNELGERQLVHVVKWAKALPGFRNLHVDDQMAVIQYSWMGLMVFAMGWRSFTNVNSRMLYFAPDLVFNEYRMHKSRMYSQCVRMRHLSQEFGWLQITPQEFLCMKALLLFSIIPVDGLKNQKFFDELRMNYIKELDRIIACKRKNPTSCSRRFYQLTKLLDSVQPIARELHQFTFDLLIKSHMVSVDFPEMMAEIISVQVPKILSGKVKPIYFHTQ
Description: Cell lysates were harvested, precleared with protein A/G sepharose, and β-catenin was immunoprecipitated using a goat polyclonal IgG against β-catenin conjugated to agarose (Santa Cruz Biotechnology). The immunoprecipitates were analyzed by polyacrylamide gel electrophoresis followed by Western analysis for AR and β-catenin (β-cat) as indicated using antibodies from Santa Cruz (FIG. 2).

[4] = molecular target: T3, interaction between AR and β-catenin (Homo sapiens, UniProt P10275); assay: One-hybrid GAL4-β-catenin/AR luciferase reporter assay in CV-1 cells; assay type: cell-based, African green monkey; details: AR expressing CV-1 cells, 10 nM, 18 hours
T3 construct: The AR expression vector is human full length AR cDNA in pcDNA3; expressed in transfected cells; host or cells: CV-1 cells
T3 sequence (P10275 1-920): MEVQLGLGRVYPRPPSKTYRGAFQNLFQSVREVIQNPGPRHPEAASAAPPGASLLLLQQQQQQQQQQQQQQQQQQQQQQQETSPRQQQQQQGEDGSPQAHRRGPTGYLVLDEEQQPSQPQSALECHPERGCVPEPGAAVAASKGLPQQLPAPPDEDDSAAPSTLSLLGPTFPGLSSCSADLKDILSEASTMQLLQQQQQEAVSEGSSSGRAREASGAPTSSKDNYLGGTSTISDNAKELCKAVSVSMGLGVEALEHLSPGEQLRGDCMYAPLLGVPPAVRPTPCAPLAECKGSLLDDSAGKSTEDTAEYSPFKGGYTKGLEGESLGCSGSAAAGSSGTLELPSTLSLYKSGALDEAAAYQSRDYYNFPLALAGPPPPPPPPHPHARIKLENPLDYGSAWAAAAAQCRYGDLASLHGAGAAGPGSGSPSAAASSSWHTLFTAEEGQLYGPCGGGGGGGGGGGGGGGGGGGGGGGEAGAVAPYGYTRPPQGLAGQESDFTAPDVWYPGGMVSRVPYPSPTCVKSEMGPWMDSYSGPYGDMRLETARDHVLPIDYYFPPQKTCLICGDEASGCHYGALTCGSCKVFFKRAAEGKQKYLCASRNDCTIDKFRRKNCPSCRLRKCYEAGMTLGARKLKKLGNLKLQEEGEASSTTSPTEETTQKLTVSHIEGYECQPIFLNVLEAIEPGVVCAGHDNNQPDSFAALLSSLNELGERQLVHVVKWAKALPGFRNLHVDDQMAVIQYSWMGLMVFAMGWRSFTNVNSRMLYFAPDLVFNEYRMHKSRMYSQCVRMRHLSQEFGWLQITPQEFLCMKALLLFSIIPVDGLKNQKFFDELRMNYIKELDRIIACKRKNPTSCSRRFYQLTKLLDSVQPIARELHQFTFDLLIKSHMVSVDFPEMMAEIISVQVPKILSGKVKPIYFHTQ
Description: as §1
(§3) Cell lysates were harvested and analyzed for luciferase activity.
as §2, §3

| SMILES | activity in the one-hybrid assay (reporter activity) [1] | activity in the one-hybrid assay (reporter activity) [2] | effect on DHT-stimulated AR/β-catenin protein-protein interaction [3] | reporter (luciferase) activity [4] |
| --- | --- | --- | --- | --- |
| C[C@]12CC[C@@H]3c4ccc(O)cc4CC[C@H]3[C@@H]1CC[C@@H]2O [17β-estradiol] | no activity | no activity | – | – |
| C[C@]12CCC(=O)C[C@@H]1CC[C@@H]1[C@@H]2CC[C@]2(C)[C@@H](O)CC[C@@H]12 [DHT, dihydrotestosterone] | no activity | no activity | – | – |
| CC(C)(O)C(=O)Nc1ccc([N+](=O)[O-])c(C(F)(F)F)c1 [hydroxyflutamide] | – | – | attenuated | – |
| C[C@H](O)C(=O)[C@@]1(C)CC[C@H]2[C@@H]3CCC4=CC(=O)CCC4=C3CC[C@@]21C [trimegestone] | no activity | no activity | – | not |
